This note sets out measurements from publication PMC5007466, “VCP recruitment to mitochondria causes mitophagy impairment and neurodegeneration in models of Huntington's disease” (Nature Communications, 2016).

pIC50: −log10 of the molar value.

The target in one data set is T1, VCP/mtHtt interaction (Homo sapiens, UniProt P55072).
T1 construct: The full-length VCP wt and GFP-LC3B plasmids were obtained from Addgene; expressed in transfected cells; host or cells: HEK293
The data set is described as follows: Co-immunoprecipitation of GFP-VCP and Myc-73Q FL (mtHtt) in HEK293 cells. Particulars: HEK293, Myc-73Q FL + GFP-VCP, 48 h. In kind it is cell-based. On the procedure:
(§1) (b) Stick drawings of VCP and Htt main domains. […] Immunoprecipitates were analysed by WB with the indicated antibodies. […] VCP mitochondrial levels were determined by WB. Loading control: VDAC. Data are mean±s.e.m. (g–i) ANOVA with Holm-Sidak post hoc test.
Myc-tagged full-length Htt with 23Q or 73Q plasmid was obtained from the CHDI foundation. The full-length VCP wt and GFP-LC3B plasmids were obtained from Addgene. To construct the mitochondria-targeting VCP plasmid, CMV-mito-GEM-GECO1 was digested with BamHI and HindIII, and VCP was PCR-amplified and inserted into the plasmid backbone. Site mutation of the VCP plasmid was performed using a site-mutagenesis kit (Agilent Technologies, Inc.). Cells were transfected with TransIT-2020 (Mirus Bio, LLC) following the manufacturer's protocol.
Human cervix carcinoma cells (HeLa cells) and HEK293 cells were maintained in DMEM supplemented with 10% FBS and 1% (v/v) penicillin/streptomycin.
Supplementary Figure 4: Rational design of a peptide inhibitor to block VCP/Htt interaction. […] Quantitation of VCP/Htt binding was shown below the blot as the m ean of three independent experiments. […] The blots of the bindings of mtHtt/VCP were quantitated with NIH Image J software. The IC50 was calculated. […]

For data set [1], the system named is interaction of mtHtt with Tim23. The data set can be described thus: Co-immunoprecipitation mtHtt/Tim23. In kind it is cell-based. Particulars: HV-3 treatment; total cell lysates, IP/WB. The procedure:
as §1

Data set [2] deals with Cathepsin B in HdhQ111 mouse striatal cells. The data set can be described thus: Lysosomal Cathepsin B activity. In kind it is cell-based. Particulars: 3 uM/day for 3 days. The procedure: Figure 5 Treatment of HV-3 reduces excessive mitophagy in HD cell cultures and HD mouse brains. (a) HdhQ7 and HdhQ111 cells were treated with control siRNA (con) or VCP siRNA (siVCP) for 48 h. Mitochondria were isolated and LC3 mitochondrial levels were determined by WB. Representative blots are from three independent experiments. The quantitation of LC3 II levels on mitochondria is provided on the right. VADC was used as a loading control. (b) Flag-VCP and GFP-LC3B were co-transfected into wild-type striatal cells. Mitochondria were isolated after 36 h of transfection. The GFP-LC3B levels on mitochondria were examined by WB. VDAC was used as a loading control. Representative blots are from three independent experiments. Histogram: quantitation of GFP-LC3B mitochondrial protein level. HdhQ7 and HdhQ111 cells were treated with control peptide TAT or peptide HV-3 (3 uM/day for 3 days). (c) HdhQ111 cells were transfected with GFP-LC3B for 24 h. The number of GFP-LC3B puncta was quantitated and shown in the histogram. Scale bars: 10 μm. (d) Enzyme activity of lysosomal Cathepsin B was measured using a Cathepsin B assay kit. […] (e) Mitochondrial mass was measured by the fluorescent density of Mitotracker green. […] Histogram: the number of mitophagosomes per 100 μm^2 was counted and quantitated. Fifteen random areas in the striatum of each animal were analyzed. […]

Data set [3] relates to wt mice (YAC128 littermates). The data set is described as follows: Motor activity of wt littermates of YAC128. Particulars: 3 to 12 months of age, 3 mg/kg/day. In kind it is in vivo, mouse. On the procedure: YAC128 mice (Tg) and their age-matched wt littermates were implanted with an osmotic pump containing TAT control peptide or HV-3 peptide (3 mg/kg/day, each) starting from the age of 3 months. The pump was replaced once every month. By the age of 12 months, the treatments were terminated and the mouse samples were harvested for analysis.
Gross locomotor activity was assessed in R6/2 mice and age-matched wt littermates at the ages of 13 weeks and in YAC128 mice and age-matched wt littermates at the ages of 2, 3, 6, 9, and 12 months. In an activity chamber (Omnitech Electronics, Inc), mice were placed in the center of the chamber and allowed to explore while being tracked by an automated beam system (Vertax, Omnitech Electronics Inc). Distance moved, horizontal, vertical, and rearing activities were recorded. Because R6/2 mice were sensitive to changes in environment and handling, we only conducted one-hour locomotor activity analysis for R6/2 mice and wt littermates. We performed 24 h of locomotor activity analysis for YAC128 mice and their wt littermates.
The motor coordination and balance of YAC128 mice were tested on an accelerating Rotarod (IITC Life Sciences, Serials 8) at the ages of 2, 3, 6, 9 and 12 months. Training and baseline testing for motor function tasks were conducted at 2 months of age. […]

For the compound `CSCC[C@H](NC(=O)[C@@H](NC(=O)[C@H](CC(C)C)NC(=O)[C@@H](NC(=O)[C@H](Cc1c[nH]cn1)NC(=O)CCCCCNC(=O)[C@H](CCCNC(=N)N)NC(=O)[C@H](CCCNC(=N)N)NC(=O)[C@H](CCCNC(=N)N)NC(=O)[C@H](CCC(N)=O)NC(=O)[C@H](CCCNC(=N)N)NC(=O)[C@H](CCCNC(=N)N)NC(=O)[C@H](CCCCN)NC(=O)[C@H](CCCCN)NC(=O)[C@H](CCCNC(=N)N)NC(=O)CNC(=O)[C@@H](N)Cc1ccc(O)cc1)C(C)C)C(C)C)C(=O)N[C@@H](CS)C(=O)N[C@@H](C)C(=O)N[C@H](C(N)=O)[C@@H](C)O` [HV-3], at VCP/mtHtt interaction (0 to 4 µM, IP/WB quantitated, read-out: IC50 blocking VCP/mtHtt interaction), the pIC50 is 5.68. The “block of VCP/mtHtt interaction” value on VCP/mtHtt interaction (3 µM/day, n = 3) was “only HV-3 peptide significantly blocked the VCP/mtHtt interaction”. The “interaction of mtHtt with Tim23” value in data set [1] was “did not influence the interaction of mtHtt with Tim23”. In data set [2], the “Cathepsin B activity” value is “reduced by treatment with HV-3”. Besides, in data set [3], the “motor activity of wt mice” value is given as “did not affect motor activity in wt mice”.
